This is an account of results in patent EP1954678B1, “NOVEL NK1 AND NK2 ANTAGONISTS” (Abbott Products GmbH, priority 2005, dated 2007).

Assay [1] deals with T1, human NK2 receptors (Homo sapiens, UniProt P21452).
T1 construct: expressed in transfected cells; host or cells: CHO cells (membrane preparation)
T1 sequence (P21452 1-398): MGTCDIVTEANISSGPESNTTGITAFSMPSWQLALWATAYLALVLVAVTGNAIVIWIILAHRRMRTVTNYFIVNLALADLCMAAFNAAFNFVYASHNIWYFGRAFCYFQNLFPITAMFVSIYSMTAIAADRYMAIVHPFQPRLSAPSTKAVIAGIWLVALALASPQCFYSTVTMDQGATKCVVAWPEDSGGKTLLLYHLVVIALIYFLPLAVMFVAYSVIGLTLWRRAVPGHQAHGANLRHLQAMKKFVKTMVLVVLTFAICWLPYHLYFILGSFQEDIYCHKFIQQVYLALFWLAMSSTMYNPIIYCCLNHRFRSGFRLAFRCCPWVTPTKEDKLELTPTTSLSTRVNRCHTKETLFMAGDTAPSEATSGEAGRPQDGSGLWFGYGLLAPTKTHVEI
The assay can be described thus: Binding of the test substances to NK2 receptors in vitro ([3H]-SR 48968 displacement, CHO cell membranes). The note with it: [3H]-SR 48968 as ligand; membranes of CHO cells expressing the human NK2 receptor; 90 min incubation; Ki calculated from IC50; read-out: pKi (NK2) (converted). The method, then: The affinity of the test substances to human NK2 receptors was measured in vitro. The ability of the test substances to displace the selective NK2 receptor antagonist SR 48968 (= saredutant) used as reference ligand from its corresponding bond was determined.
The receptor binding studies were carried out with radioactively marked [^3H]-SR 48968 (from Amersham) as ligand. For the binding test, different samples of a membrane preparation of CHO cells (= egg cells of the Chinese hamster, Chinese hamster oocytes), which express the human NK2 receptor (for preparation, see N.P. Gerard et al., Journal of Biological Chemistry 265/33 (1990) 20455-20462), were incubated for 90 minutes (= min.) with a solution of the marked ligand, with the incubation mixtures containing no test substance or additions of different concentrations of test substance. Then in each case the membrane-bound ligands in the samples were separated from free ligands by filtration. The fraction remaining in the filter was washed several times with buffer solution, before its radioactivity was measured using a liquid scintillation counter. That concentration which effects half-maximum displacement of the bound reference ligand was determined as IC50 of the respective test substance. The inhibition constant (Ki value) of the test substance was calculated from the respective IC50 value, and was stated as the negative logarithmised value thereof (pKi).
If several measurements were performed, the average thereof was listed each time. The pKi value is a measurement of the affinity of the test substances to human NK2 receptors.

Assay [2] concerns the target T2, NK2 receptors (Cavia porcellus, UniProt Q64077).
T2 sequence (Q64077 1-402): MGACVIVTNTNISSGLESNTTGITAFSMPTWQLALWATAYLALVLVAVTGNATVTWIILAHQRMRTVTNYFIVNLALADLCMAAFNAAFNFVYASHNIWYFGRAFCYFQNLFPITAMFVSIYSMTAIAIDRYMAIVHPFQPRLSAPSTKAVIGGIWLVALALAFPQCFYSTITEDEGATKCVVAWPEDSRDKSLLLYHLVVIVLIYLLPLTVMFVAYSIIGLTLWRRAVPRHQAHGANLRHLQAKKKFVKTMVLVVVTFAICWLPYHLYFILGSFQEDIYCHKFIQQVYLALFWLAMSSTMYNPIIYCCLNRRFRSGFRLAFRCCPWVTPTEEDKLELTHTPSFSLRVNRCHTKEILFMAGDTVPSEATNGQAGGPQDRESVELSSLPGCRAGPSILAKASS
The assay can be described thus: Functional NK2 antagonism on isolated guinea pig gall-bladder preparations (NKA induced contraction). Further details: from tissue; host or cells: guinea pig gall-bladder preparations; species or system Pirbright-White guinea pigs. The protocol:
The NK2 receptor-antagonising action of the test substances was determined on isolated gall-bladder preparations from Pirbright-White guinea pigs, held in an oxygen-saturated nutrient solution. To this end, the preparations were fastened on one hand in the nutrient solution to organ holders and on the other hand on a force meter by a thread.
The concentration of the test substances was increased iteratively in the subsequent experiments as a function of the result in logarithmic whole or half steps, until at least one concentration above or below 50% inhibition of contraction was determined (up to at most 10^-5 mol/l). For each concentration, the average value of inhibition of contraction was calculated from 2 to 4 preparations. In each case, the concentration of half-maximum inhibition (IC50) per test substance was calculated as characteristic variable.

Assay [3] deals with T2, NK2 receptors. The assay is described as follows: NK-2-receptor-antagonistic effectiveness in vivo in anaesthetised guinea pigs (NKA test stimulus: late hypotension, bronchoconstriction, colonic pressure). Further details: from tissue; host or cells: whole anaesthetised guinea pig (in vivo); species or system Pirbright-White guinea pigs. The following applies: for ED50: guinea pig; for oral activity as NK2 receptor antagonist: result in words, oral administration. From the text:
The NK-1- and NK-2-antagonistic activities of the test substances were investigated in anaesthetised guinea pigs in each case after intravenous (= i.v.) and oral (= p.o.) administration in vivo. With the present test model it is possible to detect both NK-2-antagonistic effects in three different organ systems (respiratory tracts, colon and circulation) and NK-1-antagonistic effects (rapid drop in blood pressure) in an animal simultaneously.
Pirbright-White guinea pigs of a body weight of 500-700 g were anaesthetised with ketamine/xylazine (67/13 mg/kg subcutaneously, initial dose, further doses administered as required). The animals were provided with an intravenous catheter in order to administer the substance and an intra-arterial catheter to measure the blood pressure. The animals were artificially ventilated via a tracheal cannula and the respiratory pressure was recorded by means of a pressure transducer. A balloon was introduced into the distal colon of the animals for manometric recording of colon motility by means of a pressure transducer. Blood pressure, heart rate, respiratory pressure and colonic pressure were measured continuously for each animal and plotted on a recorder and by means of a digital data-processing system. […] The second phase of delayed hypotension (= phase of maximum hypotension after 2-5 min.) on the other hand is mediated via NK-2 receptors, since they can be blocked by specific NK-2 receptor antagonists. […] Table 6: NK-1- and NK-2-receptor-antagonistic effective-ness of the test substances of Formula I on guinea pigs in vivo after intravenous administration
These ED50 values obtained from cumulative dose effect curves are plotted in table 6.
The antagonistic effects of the test substances were then determined as "area under the curve" ("AUC") over the investigation period after administration of the test substances (1 - 180 min after administration) and the ED50 values after oral administration obtained therefrom were plotted in table 7. Table 7: NK-1- and NK-2-receptor-antagonistic effective-ness of the test substances of Formula I on guinea pigs in vivo after oral administration

The mark [4] stands for this setting: iv, read-out: ED50 iv after 1 min (cumulative) NK2 (broncho-constriction).
The mark [5] stands for this setting: iv, read-out: ED50 iv after 1 min (cumulative) NK2 (colonic motility).
Setting [6] is: iv, read-out: ED50 iv after 1 min (cumulative) NK2 (late hypotension).
Where [7] appears, read: oral, from AUC of antagonistic effect 1 - 180 min after administration, read-out: ED50 AUC1-180 min oral NK2 (broncho-constriction).
The mark [8] stands for this setting: oral, from AUC of antagonistic effect 1 - 180 min after administration, read-out: ED50 AUC1-180 min oral NK2 (colonic motility).
Where [9] appears, read: oral, from AUC of antagonistic effect 1 - 180 min after administration, read-out: ED50 AUC1-180 min oral NK2 (late hypotension).

pIC50: −log10 of the molar value. Where two headings read alike, the source gives them in different places. Some results are limits rather than exact numbers.

The term pIC50 denotes −log10 of the IC50, conventionally taken in molar units. A low value points to a high IC50. The term ED50 denotes the dose at which the effect has come halfway, by size or by number of responders. Regarding `CN(C[C@@H](CCN1CCN([C@@H](c2ccco2)[C@H]2COC(=O)O2)CC1)c1ccc(Cl)c(Cl)c1)C(=O)c1cc(C#N)cc2ccccc12` [Compound 11, 3-cya no-N-[(2S)-2-(3,4-dichlorophenyl)-4-(4-{(R)-2-furyl[(4S)-2-oxo-1,3-dioxolan-4-yl]methyl}piperazin-1-yl)butyl]-N-methyl-1-naphthamide], the Ki in assay [1] is 25.1 nM. In assay [2], this compound had a pIC50 of 7.80. Moreover, the ED50 in assay [3] (setting [4]) was 0.13 µmol/kg; in assay [3] (setting [5]), 0.132 µmol/kg; in assay [3] (setting [6]), 0.145 µmol/kg.

In the case of `CN(C[C@@H](CCN1CCN([C@@H](c2ccco2)[C@H](O)CO)CC1)c1ccc(Cl)c(Cl)c1)C(=O)c1cc(C#N)cc2ccccc12` [Compound 1, 3-cyano-N-[(2S)-2-(3,4-dichlorophenyl)-4-{4-[(1R,2S)-1-(2-furyl)-2,3-dihydroxypropyl]piperazin-1-yl}butyl]-N-methyl-1-naphthamide], the Ki in assay [1] is 7.94 nM. The same compound gave a pIC50 in assay [2] of 8.70. For the same compound, the ED50 in assay [3] (setting [4]) was 0.321 µmol/kg; in assay [3] (setting [5]), 0.027 µmol/kg; in assay [3] (setting [6]), 0.643 µmol/kg; in assay [3] (setting [7]), 3.1 µmol/kg; in assay [3] (setting [8]), 5.5 µmol/kg; in assay [3] (setting [9]), 3.1 µmol/kg. The “oral activity as NK2 receptor antagonist” value in assay [3] is given as “active orally”.

Regarding `CN(C[C@@H](CCN1CCN([C@@H](c2ccco2)[C@H](O)[C@@H](O)[C@H](O)CO)CC1)c1ccc(Cl)c(Cl)c1)C(=O)c1cc(C#N)cc2ccccc12` [Compound 2, 3-cyano-N-[(2S)-2-(3,4-dichlorophenyl)-4-{4-[(1R,2S,3R,4R)-1-(2-furyl)-2,3,4,5-tetrahydroxypentyl]piperazin-1-yl}butyl]-N-methyl-1-naphthamide], in assay [1], the Ki is 79.4 nM. In assay [2], this compound gave a negative logarithm of the IC50 (pIC50) of 7.70. Moreover, the ED50 in assay [3] (setting [4]) is less than 0.01 µmol/kg; in assay [3] (setting [5]), 0.085 µmol/kg; in assay [3] (setting [6]), 0.106 µmol/kg; in assay [3] (setting [7]), 11.7 µmol/kg; in assay [3] (setting [8]), 6 µmol/kg; in assay [3] (setting [9]), 14.8 µmol/kg. In addition, the “oral activity as NK2 receptor antagonist” value in assay [3] is given as “active orally”.

For the compound `CN(C[C@@H](CCN1CCN(C(CO)(CO)c2ccco2)CC1)c1ccc(Cl)c(Cl)c1)C(=O)c1cc(C#N)cc2ccccc12` [Compound 6, 3-cyano-N-[(2S)-2-(3,4-dichlorophenyl)-4-{4-[1-(2-furyl)-2-hydroxy-1-(hydroxymethyl)ethyl]piperazin-1-yl}butyl]-N-methyl-1-naphthamide], the Ki in assay [1] is 39.8 nM. The compound also had a pIC50 in assay [2] of 7.40. Besides, the ED50 in assay [3] (setting [4]) was found to be 0.595 µmol/kg; in assay [3] (setting [5]), 0.05 µmol/kg; in assay [3] (setting [6]) it was 0.282 µmol/kg.
